Patent publication US20070036793A1, “Methods for use of an lkb1/strad7mo25 complex” (priority 2003, published 2007)
Entries after “also recorded” stand apart in the source; their conditions may differ.

Tests used:
[1] = biological target: T1, AMPKα1 (Mus musculus, UniProt Q5EG47); assay: AMPK activity and Thr172 phosphorylation in LKB1+/+ MEFs after drug stimulation; type: cell-based; settings: 1 h
T1 construct: AMPKα1 and AMPK-related kinases were immunoprecipitated from the cell lysates; endogenous in cells; host or cells: immortalised LKB1+/+ MEFs
Experimental: FIG. 27 Activity of AMPK-related kinases in LKB1+/+ and LKB1^−/− MEFs. LKB1^+/+ or LKB1^−/− MEFs were either left untreated (black bars) or stimulated with 10 mM phenformin (Phen, white bars) for 1 h. AMPKα1 and AMPK-related kinases were immunoprecipitated from the cell lysates, and in vitro kinase activity towards the AMARA peptide was measured as described in Materials and Methods (Example 4). To confirm equal expression of the kinases in each sample, cell lysates (AMPKα1, NUAK2, MARK2/3 and MARK4) or immunoprecipitated proteins (QIK, QSK, SIK and MARK1) were subjected to SDS-PAGE and western blot analysis. All AMPK-related kinases migrated with the expected molecular mass. In the case of AMPKα1, cell lysates were immunoblotted with a phospho Thr172 antibody (P-AMPK), that recognises the phosphorylated T-loop. A control immunoblot of LKB1 levels in cell lysates is also included in panel B. Results shown are average + SD of 2-4 assays and are representative of at least two independent experiments.
FIG. 28. […] (A) LKB1^+/+ MEFs were either left untreated or stimulated with the indicated concentrations of phenformin (Phen) for 1 h. AMPKα1/a2 and LKB1 were immunoprecipitated from the cell lysates, and in vitro kinase activity towards the AMARA and LKBtide peptides respectively, were measured as described in Materials and Methods (Example 4). (B) To confirm equal expression of the kinases in each sample, cell lysates were subjected to SDS-PAGE and western blot analysis with the indicated antibodies. The phospho pT172 antibody (P-AMPK) recognises the phosphorylated T-loop of AMPKα1. Results are shown as the average ± SD for a triplicate assay and are representative of two independent experiments. […] AMPKα1 and the indicated AMPK-related kinases were immunoprecipitated from the cell lysates, and in vitro kinase activity towards the AMARA peptide measured as described in Materials and Methods. […]
Cell culture, stimulation and cell lysis. […] Protein concentrations were determined by the Bradford method with bovine serum albumin as the standard (Bradford, 1976). […]

[2] = system: acetyl-CoA carboxylase (ACC); assay: Phosphorylation of acetyl-CoA carboxylase at Ser-79 in HeLa cells expressing LKB1; type: cell-based, human; settings: HeLa cells stably expressing wild type LKB1; 2 mM AICA riboside or 10 mM phenformin, 60 min
Experimental: FIG. 18: Restoration of the ability of AMPK to be activated by AICA riboside and phenformin in HeLa cells by expression of LKB1. Control HeLa cells (lanes 1, 2, 3), HeLa cells expressing wild type (WT) LKB1 (lanes 4, 5, 6) and kinase dead (D194A, KD) mutant LKB1 (lanes 7, 8, 9) were either left unstimulated or treated with 2 mM AICA riboside or 10 mM phenformin for 60 min and lysed. (A) Endogenous AMPK was immunoprecipitated from the cell extracts and assayed. (B) The cell lysates was immunoblotted with antibodies recognising AMPKα1 phosphorylated at Thr172 or total AMPKα1; the results were analysed using the LI-COR IR Odyssesy™ imager as described under Materials and Methods, and are expressed as a ratio of the two signals. (C) The cell lysates was analysed by Western blotting and the membranes probed with antibodies recognising ACC phosphorylated at Ser-79, or streptavidin to determine total […]. The results were analysed using the LI-COR IR imager as for (B).
To analyse phosphorylation of ACC, samples were analysed by SDS-PAGE, transferred to nitrocellulose (BioRad) and incubated in Odyssey™ Blocking buffer containing 0.2% Tween-20 for 1 h. […] The membranes were scanned in two different channels using the Odyssey™ IR imager, the results quantified using Odyssey™ software and expressed as a ratio of the signal obtained with the pACC antibody to that obtained with streptavidin. […]

T1 sequence (Q5EG47 whole entry): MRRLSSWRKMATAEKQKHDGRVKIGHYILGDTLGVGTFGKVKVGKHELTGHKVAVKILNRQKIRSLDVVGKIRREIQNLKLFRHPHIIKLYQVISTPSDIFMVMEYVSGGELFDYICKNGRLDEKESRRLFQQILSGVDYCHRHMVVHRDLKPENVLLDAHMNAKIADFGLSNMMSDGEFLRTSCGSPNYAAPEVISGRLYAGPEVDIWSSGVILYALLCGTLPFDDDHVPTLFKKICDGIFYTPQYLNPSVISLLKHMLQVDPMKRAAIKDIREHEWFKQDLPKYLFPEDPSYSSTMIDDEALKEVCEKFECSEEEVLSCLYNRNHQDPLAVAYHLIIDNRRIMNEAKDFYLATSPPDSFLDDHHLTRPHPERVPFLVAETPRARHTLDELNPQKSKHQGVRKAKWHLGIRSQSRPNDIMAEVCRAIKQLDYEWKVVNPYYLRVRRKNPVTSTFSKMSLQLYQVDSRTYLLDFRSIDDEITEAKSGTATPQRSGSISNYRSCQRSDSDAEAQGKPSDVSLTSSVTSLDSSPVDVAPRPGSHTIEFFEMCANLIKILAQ
T1 sequence (Q9R078 2-270 partner limits assumed): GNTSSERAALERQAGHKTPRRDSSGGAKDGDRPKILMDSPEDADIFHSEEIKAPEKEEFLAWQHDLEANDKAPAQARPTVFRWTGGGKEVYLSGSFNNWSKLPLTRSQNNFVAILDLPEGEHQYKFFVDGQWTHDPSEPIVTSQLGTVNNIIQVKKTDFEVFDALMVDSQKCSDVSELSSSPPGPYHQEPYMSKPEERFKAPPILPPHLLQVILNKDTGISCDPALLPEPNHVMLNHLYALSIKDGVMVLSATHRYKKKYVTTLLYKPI
T1 sequence (O54950 whole entry partner): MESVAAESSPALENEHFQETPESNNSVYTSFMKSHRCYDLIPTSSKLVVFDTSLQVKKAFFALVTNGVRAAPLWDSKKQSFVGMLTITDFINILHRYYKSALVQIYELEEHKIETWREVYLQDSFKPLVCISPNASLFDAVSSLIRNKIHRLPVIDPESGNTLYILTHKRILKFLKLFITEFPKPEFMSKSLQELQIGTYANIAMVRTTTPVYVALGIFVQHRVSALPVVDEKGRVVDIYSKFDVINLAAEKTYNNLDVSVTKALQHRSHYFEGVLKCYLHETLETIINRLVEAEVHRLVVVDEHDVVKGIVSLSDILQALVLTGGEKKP

Structure (SMILES)	activation of AMPK ([1]; 2 mM AICA riboside)	phosphorylation of downstream target ACC (Ser-79) [2]	activation of AMPK ([1]; increasing doses of phenformin)	phosphorylation of Thr172 of AMPK ([1]; increasing doses of phenformin)
NC(=O)c1ncn([C@@H]2O[C@H](CO)[C@@H](O)[C@H]2O)c1N [AICA riboside, 5-aminoimidazole-4-carboxamide (AICA) riboside]	activated AMPK	larger effect than phenformin; also recorded: restored	–	–
[H]/N=C(/N)N/C(=N/[H])NCCc1ccccc1 [phenformin]	–	restored	progressively activated AMPK	increased the phosphorylation of Thr172
